In patent US20230357189A1, “MODIFIED FLUOROQUINOLONES AND USES THEREOF” (Technion Research & Development Foundation Limited, priority 2021, published 2023):

Key:
Experiment in all cases: Antibacterial activity, MIC by double-microdilution method
Assay type in all cases: cell-based
[1] = tested on: Bacillus Subtilis; details: Bacillus Subtilis; for Gram-positive MIC d: Table 2; for Gram-positive MIC, DTT 0 mM / Gram-positive MIC, DTT 2 mM / Gram-positive MIC, DTT 10 mM: Table 3
[2] = tested on: Escherichia coli R477-100; details: for Gram-negative MIC a: Table 2, without DTT; for Gram-negative MIC a / Gram-negative MIC, DTT 10 mM / Gram-negative MIC, DTT 0 mM / Gram-negative MIC, DTT 2 mM: Escherichia coli R477-100; for Gram-negative MIC, DTT 0 mM / Gram-negative MIC, DTT 2 mM: Table 3
[3] = tested on: Escherichia coli 25922; details: Table 2; Escherichia coli 25922
[4] = tested on: Staphylococcus Epidermidis; details: Table 2

SMILES	Gram-positive MIC, DTT 0 mM [1]	Gram-positive MIC, DTT 2 mM [1]	Gram-positive MIC, DTT 10 mM [1]	Gram-negative MIC, DTT 10 mM [2]	Gram-negative MIC, DTT 0 mM [2]	Gram-negative MIC, DTT 2 mM [2]	improvement of MIC in the presence of DTT ([2]; 10 mM DTT vs without DTT, Gram-negative E. coli R477-100)	Gram-positive MIC d [1]	Gram-negative MIC a [2]	Gram-negative MIC b [3]	Gram-positive MIC c [4]
O.O=C(O)c1cn(C2CC2)c2cc(N3CCN(CCCCCCN4CCNCCNCCNCC4)CC3)c(F)cc2c1=O.[Co+3].[OH-] [1-Co(III)]								12 µg/mL	12 µg/mL	12 µg/mL	24 µg/mL
O.O=C(O)c1cn(C2CC2)c2cc(N3CCN(CCCCCCCN4CCNCCNCCNCC4)CC3)c(F)cc2c1=O.[Co+3].[OH-] [2-Co(III)]								12 to 24 µg/mL	12 µg/mL	6 µg/mL	24 µg/mL
O.O=C(O)c1cn(C2CC2)c2cc(N3CCN(CCCCCCCCN4CCNCCNCCNCC4)CC3)c(F)cc2c1=O.[Co+3].[OH-] [3-Co(III)]								12 µg/mL	12 µg/mL	6 µg/mL	12 to 24 µg/mL
O=C(O)c1cn(C2CC2)c2cc(N3CCN(CCCCCCCCN4CCNCCNCCNCC4)CC3)c(F)cc2c1=O [Compound 3]								6 µg/mL	24 to 48 µg/mL	12 µg/mL	6 µg/mL

More lines, main results first:

Gram-positive MIC, DTT 0 mM [1]	Gram-positive MIC, DTT 2 mM [1]	Gram-positive MIC, DTT 10 mM [1]	Gram-negative MIC, DTT 10 mM [2]	Gram-negative MIC, DTT 0 mM [2]	Gram-negative MIC, DTT 2 mM [2]	improvement of MIC in the presence of DTT ([2]; 10 mM DTT vs without DTT, Gram-negative E. coli R477-100)	SMILES	Gram-positive MIC d [1]	Gram-negative MIC a [2]	Gram-negative MIC b [3]	Gram-positive MIC c [4]
12 µg/mL	6 to 12 µg/mL	12 µg/mL	24 µg/mL	24 µg/mL	12 µg/mL		N=C(N)NCCN1CCNCCNCCN(CCc2ccc(CN3CCN(c4cc5c(cc4F)c(=O)c(C(=O)O)cn5C4CC4)CC3)cc2)CC1 [Compound 20]	12 µg/mL	24 µg/mL	24 µg/mL	24 µg/mL
12 µg/mL	12 µg/mL	6 µg/mL	6 µg/mL	12 µg/mL	6 µg/mL		N=C(N)NCCN1CCNCCNCCN(CCCc2ccc(CN3CCN(c4cc5c(cc4F)c(=O)c(C(=O)O)cn5C4CC4)CC3)cc2)CC1 [Compound 21]	6 µg/mL	12 µg/mL	12 µg/mL	6 µg/mL
6 µg/mL	6 µg/mL	6 µg/mL	12 µg/mL	12 µg/mL	6 µg/mL		NCCN1CCNCCNCCN(CCCCc2ccc(CN3CCN(c4cc5c(cc4F)c(=O)c(C(=O)O)cn5C4CC4)CC3)cc2)CC1 [Compound 26]	6 µg/mL	12 µg/mL	12 µg/mL	6 µg/mL
						no change whatsoever	[Cl][Cu][Cl] [CuCl2, reference compound]	>384 µg/mL	>384 µg/mL	>384 µg/mL	>384 µg/mL
